Measurements: ChEMBL document CHEMBL3885881, “DrugMatrix”

Organism: Rattus norvegicus
Test: DrugMatrix - Regimen: Daily Repeat
Type: toxicity, organism-based, Sprague-Dawley
Set-up: regimen Daily Repeat, gender Male, age 6-8 weeks
Settings: in vivo, po, route oral GAVAGE, […]; for BASOPHIL / EOSINOPHIL / ERYTHROCYTE COUNT / HEMATOCRIT / HEMOGLOBIN / LEUKOCYTE COUNT / LYMPHOCYTE / MEAN CORPUSCULAR HEMOGLOBIN / MEAN CORPUSCULAR HEMOGLOBIN CONCENTRATION / MEAN CORPUSCULAR VOLUME / MONOCYTE / NEUTROPHIL / PLATELET COUNT: tissue Blood; for ALANINE AMINOTRANSFERASE / ALBUMIN / ALKALINE PHOSPHATASE / ASPARTATE AMINOTRANSFERASE / BLOOD UREA NITROGEN / CARBON DIOXIDE / CHLORIDE / CHOLESTEROL / CREATINE PHOSPHOKINASE / CREATININE / GLUCOSE / LACTATE DEHYDROGENASE / LIPASE / PHOSPHORUS / POTASSIUM / SODIUM / TOTAL BILIRUBIN / TOTAL PROTEIN / URIC ACID: tissue Plasma
[1] = 0 mg/kg, 72 h, dose level Control, time 3 day
[2] = 0 mg/kg, 120 h, dose level Control, time 5 day
[3] = 0 mg/kg, dose level Control, time 14 day
[4] = 24 mg/kg, 72 h, dose level High, time 3 day
[5] = 24 mg/kg, 120 h, dose level High, time 5 day
[6] = 24 mg/kg, dose level High, time 14 day

## c1ccoc1 [FURAN]
[1]
  BASOPHIL: 0.55%
  EOSINOPHIL: 0.55%
  ERYTHROCYTE COUNT: 6.6 x10E6/uL
  HEMATOCRIT: 43.77%
  HEMOGLOBIN: 14.12 G/DL
  LEUKOCYTE COUNT: 10.15 x10E3/uL
  LYMPHOCYTE: 87.95%
  MEAN CORPUSCULAR HEMOGLOBIN: 21.4 pg
  MEAN CORPUSCULAR HEMOGLOBIN CONCENTRATION: 32.23 G/DL
  MEAN CORPUSCULAR VOLUME: 66.33 fL
  MONOCYTE: 1.7%
  NEUTROPHIL: 8.05%
  PLATELET COUNT: 1122 x10E3/uL
  ALANINE AMINOTRANSFERASE: 49.33 u/L
  ALBUMIN: 4.08 G/DL
  ALKALINE PHOSPHATASE: 565 u/L
  ASPARTATE AMINOTRANSFERASE: 81.5 u/L
  BLOOD UREA NITROGEN: 14.33 mg/dL
  CARBON DIOXIDE: 27.17 mmol/L
  CHLORIDE: 106.83 MEQ/L
  CHOLESTEROL: 74.83 mg/dL
  CREATINE PHOSPHOKINASE: 342.33 u/L
  CREATININE: 0.4 mg/dL
  GLUCOSE: 169.5 mg/dL
  LACTATE DEHYDROGENASE: 165.17 u/L
  LIPASE: 13.67 u/L
  PHOSPHORUS: 12.42 mg/dL
  POTASSIUM: 6.7 MEQ/L
  SODIUM: 151.17 MEQ/L
  TOTAL BILIRUBIN: 0.4 mg/dL
  TOTAL PROTEIN: 6.13 G/DL
  URIC ACID: 1.62 mg/dL
[2]
  BASOPHIL: 0.87%
  EOSINOPHIL: 0.53%
  ERYTHROCYTE COUNT: 6.86 x10E6/uL
  HEMATOCRIT: 45.15%
  HEMOGLOBIN: 14.42 G/DL
  LEUKOCYTE COUNT: 12.67 x10E3/uL
  LYMPHOCYTE: 87.1%
  MEAN CORPUSCULAR HEMOGLOBIN: 21.05 pg
  MEAN CORPUSCULAR HEMOGLOBIN CONCENTRATION: 32 G/DL
  MEAN CORPUSCULAR VOLUME: 65.75 fL
  MONOCYTE: 1.9%
  NEUTROPHIL: 8.25%
  PLATELET COUNT: 1111 x10E3/uL
  ALANINE AMINOTRANSFERASE: 46.17 u/L
  ALBUMIN: 4.15 G/DL
  ALKALINE PHOSPHATASE: 447.17 u/L
  ASPARTATE AMINOTRANSFERASE: 65.67 u/L
  BLOOD UREA NITROGEN: 13.17 mg/dL
  CARBON DIOXIDE: 29 mmol/L
  CHLORIDE: 104.5 MEQ/L
  CHOLESTEROL: 72 mg/dL
  CREATINE PHOSPHOKINASE: 368.5 u/L
  CREATININE: 0.3 mg/dL
  GLUCOSE: 162.83 mg/dL
  LACTATE DEHYDROGENASE: 99.33 u/L
  LIPASE: 12.67 u/L
  PHOSPHORUS: 12.65 mg/dL
  POTASSIUM: 6.52 MEQ/L
  SODIUM: 148.67 MEQ/L
  TOTAL BILIRUBIN: 0.38 mg/dL
  TOTAL PROTEIN: 6.15 G/DL
  URIC ACID: 1.9 mg/dL
[3]
  BASOPHIL: 0.58%
  EOSINOPHIL: 0.45%
  ERYTHROCYTE COUNT: 7.51 x10E6/uL
  HEMATOCRIT: 46.87%
  HEMOGLOBIN: 15.2 G/DL
  LEUKOCYTE COUNT: 14.2 x10E3/uL
  LYMPHOCYTE: 80.78%
  MEAN CORPUSCULAR HEMOGLOBIN: 20.25 pg
  MEAN CORPUSCULAR HEMOGLOBIN CONCENTRATION: 32.42 G/DL
  MEAN CORPUSCULAR VOLUME: 62.45 fL
  MONOCYTE: 1.95%
  NEUTROPHIL: 13.97%
  PLATELET COUNT: 1115.17 x10E3/uL
  ALANINE AMINOTRANSFERASE: 32.5 u/L
  ALBUMIN: 4.22 G/DL
  ALKALINE PHOSPHATASE: 349.5 u/L
  ASPARTATE AMINOTRANSFERASE: 59.67 u/L
  BLOOD UREA NITROGEN: 14.83 mg/dL
  CARBON DIOXIDE: 30.33 mmol/L
  CHLORIDE: 102.17 MEQ/L
  CHOLESTEROL: 76 mg/dL
  CREATINE PHOSPHOKINASE: 163.17 u/L
  CREATININE: 0.37 mg/dL
  GLUCOSE: 157.33 mg/dL
  LACTATE DEHYDROGENASE: 93 u/L
  LIPASE: 10.4 u/L
  PHOSPHORUS: 11.93 mg/dL
  POTASSIUM: 6.55 MEQ/L
  SODIUM: 147.5 MEQ/L
  TOTAL BILIRUBIN: 0.4 mg/dL
  TOTAL PROTEIN: 6.45 G/DL
  URIC ACID: 0.7 mg/dL
[4]
  BASOPHIL: 0.77%
  EOSINOPHIL: 0.73%
  ERYTHROCYTE COUNT: 7.35 x10E6/uL
  HEMATOCRIT: 48.6%
  HEMOGLOBIN: 15.9 G/DL
  LEUKOCYTE COUNT: 11.15 x10E3/uL
  LYMPHOCYTE: 82.1%
  MEAN CORPUSCULAR HEMOGLOBIN: 21.57 pg
  MEAN CORPUSCULAR HEMOGLOBIN CONCENTRATION: 32.67 G/DL
  MEAN CORPUSCULAR VOLUME: 66.1 fL
  MONOCYTE: 3.27%
  NEUTROPHIL: 11.37%
  PLATELET COUNT: 1059 x10E3/uL
  ALANINE AMINOTRANSFERASE: 358 u/L
  ALBUMIN: 3.77 G/DL
  ALKALINE PHOSPHATASE: 771.67 u/L
  ASPARTATE AMINOTRANSFERASE: 316 u/L
  BLOOD UREA NITROGEN: 12.33 mg/dL
  CARBON DIOXIDE: 25 mmol/L
  CHLORIDE: 105.67 MEQ/L
  CHOLESTEROL: 87.67 mg/dL
  CREATINE PHOSPHOKINASE: 333.33 u/L
  CREATININE: 0.57 mg/dL
  GLUCOSE: 150.67 mg/dL
  LACTATE DEHYDROGENASE: 707 u/L
  LIPASE: 11.67 u/L
  PHOSPHORUS: 13.97 mg/dL
  POTASSIUM: 6.6 MEQ/L
  SODIUM: 149.33 MEQ/L
  TOTAL BILIRUBIN: 0.93 mg/dL
  TOTAL PROTEIN: 5.4 G/DL
  URIC ACID: 2.27 mg/dL
[5]
  BASOPHIL: 0.57%
  EOSINOPHIL: 0.6%
  ERYTHROCYTE COUNT: 7.68 x10E6/uL
  HEMATOCRIT: 50.57%
  HEMOGLOBIN: 16.23 G/DL
  LEUKOCYTE COUNT: 17.47 x10E3/uL
  LYMPHOCYTE: 82.63%
  MEAN CORPUSCULAR HEMOGLOBIN: 21.1 pg
  MEAN CORPUSCULAR HEMOGLOBIN CONCENTRATION: 32.1 G/DL
  MEAN CORPUSCULAR VOLUME: 65.87 fL
  MONOCYTE: 2.43%
  NEUTROPHIL: 12.47%
  PLATELET COUNT: 1240.33 x10E3/uL
  ALANINE AMINOTRANSFERASE: 114.33 u/L
  ALBUMIN: 3.83 G/DL
  ALKALINE PHOSPHATASE: 986 u/L
  ASPARTATE AMINOTRANSFERASE: 240.67 u/L
  BLOOD UREA NITROGEN: 12.33 mg/dL
  CARBON DIOXIDE: 30.67 mmol/L
  CHLORIDE: 101.67 MEQ/L
  CHOLESTEROL: 93.33 mg/dL
  CREATINE PHOSPHOKINASE: 798.67 u/L
  CREATININE: 0.37 mg/dL
  GLUCOSE: 143 mg/dL
  LACTATE DEHYDROGENASE: 233.67 u/L
  LIPASE: 14.67 u/L
  PHOSPHORUS: 12.43 mg/dL
  POTASSIUM: 7.1 MEQ/L
  SODIUM: 148.33 MEQ/L
  TOTAL BILIRUBIN: 0.87 mg/dL
  TOTAL PROTEIN: 5.63 G/DL
  URIC ACID: 2.27 mg/dL
[6]
  BASOPHIL: 0.54%
  EOSINOPHIL: 0.64%
  ERYTHROCYTE COUNT: 8.42 x10E6/uL
  HEMATOCRIT: 50.4%
  HEMOGLOBIN: 16.6 G/DL
  LEUKOCYTE COUNT: 14.86 x10E3/uL
  LYMPHOCYTE: 74.12%
  MEAN CORPUSCULAR HEMOGLOBIN: 19.76 pg
  MEAN CORPUSCULAR HEMOGLOBIN CONCENTRATION: 32.96 G/DL
  MEAN CORPUSCULAR VOLUME: 59.9 fL
  MONOCYTE: 2.54%
  NEUTROPHIL: 20.58%
  PLATELET COUNT: 1423.6 x10E3/uL
  ALANINE AMINOTRANSFERASE: 56 u/L
  ALBUMIN: 4.28 G/DL
  ALKALINE PHOSPHATASE: 706.2 u/L
  ASPARTATE AMINOTRANSFERASE: 86.6 u/L
  BLOOD UREA NITROGEN: 13.2 mg/dL
  CARBON DIOXIDE: 27 mmol/L
  CHLORIDE: 104 MEQ/L
  CHOLESTEROL: 106.8 mg/dL
  CREATINE PHOSPHOKINASE: 224.2 u/L
  CREATININE: 0.42 mg/dL
  GLUCOSE: 136.6 mg/dL
  LACTATE DEHYDROGENASE: 113.8 u/L
  LIPASE: 17.2 u/L
  PHOSPHORUS: 10.26 mg/dL
  POTASSIUM: 5.84 MEQ/L
  SODIUM: 148.4 MEQ/L
  TOTAL BILIRUBIN: 0.72 mg/dL
  TOTAL PROTEIN: 6.34 G/DL
  URIC ACID: 1.26 mg/dL
